Assays:
[1] = Structural stability in DMSO-d6; type: physicochemical
HT-29 colon cancer cells = test: Cytotoxicity against HT-29 cells; details: read-out: IC50, cytotoxicity against HT-29 cells
[2] = test system: MCF-7 breast cancer cells; test: Cytotoxicity against MCF-7 cells; details: read-out: IC50, cytotoxicity against MCF-7 cells

Structure (SMILES)	structural stability in DMSO-d6 [1]	IC50 (HT-29 colon cancer cells) [µM]	IC50 [2] [µM]
C=C[C@]1(C)CCc2cc(C)c3[nH]c4ccccc4c3c2[C@@H]1C#N (relative stereo) [Compound 4, deschloro 12-epi-fischerindole W nitrile]	structurally unstable		
C=C[C@]1(C)CC[C@H]2C(=C1C#N)c1c([nH]c3ccccc13)C2(C)C (relative stereo) [Compound 2, deschloro 12-epi-fischerindole I nitrile]		23	> 40
C=C[C@]1(C)[C@H](Cl)Cc2cc(C)c3[nH]c4ccccc4c3c2[C@@H]1C#N (relative stereo) [Compound 3, 12-epi-fischerindole W nitrile]	structurally unstable		
